Test results: US11609221B2, “Method for detecting the presence of a contaminant in a liquid” (priority 2017, dated 2023)
Converted amounts (≈) assume the structure as drawn.

Legend:
[1] = tested on: Daphnia; conditions: after 48 h exposure; cited from earlier work
[2] = tested on: benthic aquatic macroinvertebrates; test: Toximeter locomotor index monitoring of benthic aquatic macroinvertebrates during contamination episodes; assay type: in vivo, Gammarus fossarum, Erpobdella testacea, Radix auricularia; conditions: 100 μg·L^−1, contamination episodes of 20-24 h, even after several episodes; FIG. 3
Method: For the purposes of the present invention, “locomotor index” corresponds to an average distance calculated according to the study context (field or laboratory) over the 10% to 80% of the lowest values of individual distances travelled. The locomotor index is the average of these shortest distances. This locomotor index is calculated on an integration time step that can be chosen between 2 and 120 minutes. The values of distances travelled are squared before the index is calculated, so the locomotive index is expressed in mm^2/unit of time.
In the examples, only benthic aquatic macroinvertebrates calibrated in terms of size, sex, non-parasitized, from a single population and housing for two weeks in the laboratory are shown. The benthic aquatic macroinvertebrates are placed in a cage under camera monitoring where 16 individuals are placed alone in a volume of 50 mL of water.
The cage is made of neutral materials (polypropylene) and without the use of toxic products (no glue). These cages (FIG. 1) are connected to a pre-bubbled, thermo-regulated and filtered liquid supply and then circulate in the chamber that receives the effluent at a flow rate of 6 L/h. […]

SMILES: CNC(=O)ON=C(C)SC [methomyl]
- LC50 in Daphnia [1]: 0.028 µg/mL (≈ 0.173 µM)
- time to detect a toxicity of the product (locomotor index) [2]: ≤ 3 h
